# From article PMC7277860, “Viridistratins A−C, Antimicrobial and Cytotoxic Benzo[j]fluoranthenes from Stromata of Annulohypoxylon viridistratum (Hypoxylaceae, Ascomycota)” (Biomolecules, 2020)
# What was measured:
# Assay in all cases: MIC serial dilution assay
# Type in all cases: cell-based
# [1] = tested on: Staphylococcus aureus; conditions: Staphylococcus aureus DSM346; overnight, 30 °C; reference oxytetracycline 0.1 mg/mL; read-out: Minimum Inhibitory Concentration (MIC)
# Experimental: (§1) Compounds 1, 2, 4 and 5 were dissolved in MeOH (1 mg/mL) for the antimicrobial activity assay, while compound 3 was dissolved in MeOH: DMSO 9+1 (1 mg/mL). The solvents were also used as negative controls.
# (§2) Minimum inhibitory concentrations (MIC) were determined in a serial dilution assay, as described previously; a detailed protocol can be found in the Supporting Information. The compounds (1 mg/mL) were diluted to a range of 66.7 to 0.52 µg/mL and incubated with the test organisms overnight. Inhibition of growth was visually evaluated the next day: the MIC is defined as the lowest concentration of the test compound where no growth of the test organism was observed. Various test organisms of fungal and bacterial origin were tested to cover a broad range of microorganisms. This selection is also being used as a standard test panel in our attempts to discover new anti-infectives, as it represents a broad spectrum of pathogens of clinical interest, as well as sensitive indicator strains (bacteria: Bacillus subtilis, Staphylococcus aureus, Micrococcus luteus, Chromobacterium violaceum, Escherichia coli and Pseudomonas aeruginosa; mycobacteria: Mycolicibacterium smegmatis and fungi: Candida albicans, Schizosaccharomyces pombe, Mucor hiemalis, Pichia anomala and Rhodotorula glutinis).
# (§3) Protocol: Antimicrobial Activi ty Assay
# (§4) The assay was conducted as a minimum inhi bitory concentration (MIC) assay in 96-well ro und-bottom mi crotiter pl ate s usi ng the p ar ameter s su mm ari zed i n T a bl e S 1 and as already described i n [S1].
# (§5) Stocks of the test organi sms were generated by growing the organisms o ver ni ght i n 50 mL shaki ng fl asks fi ll ed wi th 25 mL of the growth medi um at 140 rpm (for media and temperatures see Table S1). If the organisms were well grown the ne xt day, which was checked by occurrence of an optical density (OD)>30 of the suspension (OD600 nm for bacteria, OD548 nm for fungi and M. smegma tis) , aliquots of these were stored i n 1.5 mL reaction tube s in a freezer at −80 °C for up to 12 mo nths . Upon use, aliquots were unth awed and the OD of the suspension measured and adjusted by diluting with the respective growth medi um. OD600 nm w as adj usted to 0.01 and OD548 nm to 0.1.
# (§6) Subse que ntly, 150 µL o f the adjusted suspensions were added to all wells of a 96-wel l microtiter pl ate (one test organi sm per plate). In row A, additional 130 µL of suspensions plus 20 µL of the test compounds (1 mg/mL) and the controls (one compound/column) were added. MeOH as well as MeOH:DMSO 9+1 were used as negative controls, while different positive controls (refer ences) were used for the test organisms (see Tabl e S1). Then, starti ng from row A, 150 µ L of the suspension were transferred to the next row, the contents thoroughly mixed, and 150 µ L transferred to the following row.
# (§7) The remaining 150 µ L after row H were discarded. […]
# (§8) compounds, ranging from 66.7 µg/mL i n row A to 0.52 µg/mL i n row H.
# (§9) The microtiter plates were then incubated overnight o n a microplate shaker at 800 rpm at 30 or 37 °C (see Table S1) and were visually evaluated the next day. The MIC is defined as the lowest concentration were no growth of the test organism was o bserved. A lower MIC thus corresponds to a higher antimicrobial activity of the test compound.
# (§10) Table S1: MIC assay ex per i men t parameters test organism strain No. growth incubation positive control (reference) […]
# Staphylococcus aureus DSM346 MHB 1 30 oxytetr acyclin 0.1 mg/mL […]
# (§11) Rhodotorula glutinis DSM10134 MYC 3 30 nyst ati n 1.0 mg/mL
# (§12) 1 MHB: Müller-Hinton Broth (SN X927.1, Ca r l Roth GmbH, Karlsruhe, Germany) 2 7H9+ADC: Middlebrook 7H9 Broth Base + Middlebrook ADC Growth Supplement (SN M0678+M0553, Merck, Darmstadt, Germany)
# (§13) 3 MYC: 1 % w/v, bacto peptone, 1% w/v yeast extract, 2 % w /v glycerol, pH 6.3 [S1] Helaly, S.E.; Ashrafi, S.; Teponno, R.B.; Bernecker, S.; Dababat, A.A.; Maier, W.; Stadler, M.
# (§14) Nematicidal Cyclic Lipodepsipeptides and a Xanthocillin Derivative from a Phaeosphariaceous […]
# [2] = tested on: Bacillus subtilis; conditions: Bacillus subtilis DSM10; overnight, 30 °C; reference oxytetracycline 1 mg/mL; read-out: Minimum Inhibitory Concentration (MIC)
# Experimental: as §1, §2, §3, §4, §5, §6, §7, §8, §9, §10
# Bacillus subtilis DSM10 MHB 1 30 oxytetr acyclin 1.0 mg/mL […]
# as §11, §12, §13, §14
# [3] = tested on: Escherichia coli; conditions: Escherichia coli DSM1116; overnight, 37 °C; reference oxytetracycline 0.1 mg/mL; read-out: Minimum Inhibitory Concentration (MIC)
# Experimental: as §1, §2, §3, §4, §5, §6, §7, §8, §9, §10
# Escherichia coli DSM1116 MHB 1 37 oxytetr acyclin 0.1 mg/mL […]
# as §11, §12, §13, §14
# [4] = tested on: Chromobacterium violaceum; conditions: Chromobacterium violaceum DSM30191; overnight, 30 °C; reference oxytetracycline 0.1 mg/mL; read-out: Minimum Inhibitory Concentration (MIC)
# Experimental: as §1, §2, §3, §4, §5, §6, §7, §8, §9, §10
# Chromobacterium DSM30191 MHB 1 30 oxytetr acyclin 0.1 mg/mL […]
# as §11, §12, §13, §14
# [5] = tested on: Pichia anomala; conditions: Hansenula anomala; Pichia anomala DSM6766; overnight, 30 °C; reference nystatin 1 mg/mL; read-out: Minimum Inhibitory Concentration (MIC)
# Experimental: as §1, §2, §3, §4, §5, §6, §7, §8, §9, §10
# Pichia anomala DSM6766 MYC 3 30 nyst ati n 1.0 mg/mL
# as §11, §12, §13, §14
# [6] = tested on: Candida albicans; conditions: Candida albicans DSM1665; overnight, 30 °C; reference nystatin 1 mg/mL; read-out: Minimum Inhibitory Concentration (MIC)
# Experimental: as §1, §2, §3, §4, §5, §6, §7, §8, §9, §10
# Candida albicans DSM1665 MYC 3 30 nyst ati n 1.0 mg/mL […]
# as §11, §12, §13, §14
# [7] = tested on: Schizosaccharomyces pombe; conditions: Schizosaccharomyces pombe DSM70572; overnight, 30 °C; reference nystatin 1 mg/mL; read-out: Minimum Inhibitory Concentration (MIC)
# Experimental: as §1, §2, §3, §4, §5, §6, §7, §8, §9, §10
# Schizosaccharomyces DSM70572 MYC 3 30 nyst ati n 1.0 mg/mL […]
# as §11, §12, §13, §14
Structure (SMILES),MIC [1] [µg/mL],MIC [2] [µg/mL],MIC [3] [µg/mL],MIC [4] [µg/mL],MIC [5] [µg/mL],MIC [6] [µg/mL],MIC [7] [µg/mL]
"O=C1C[C@H]2C(=C3CCC(=O)c4c(O)ccc2c43)c2cccc(O)c21 [Compound 4, truncatone A]",> 66.7,> 66.7,> 66.7,> 66.7,> 66.7,> 66.7,> 66.7
"Oc1cccc2c3c(ccc12)-c1ccc(O)c2c(O)ccc-3c12 [Compound 1, viridistratin A]",66.7,33.3,> 66.7,66.7,66.7,> 66.7,66.7
"COc1cccc2c3c(ccc12)-c1ccc(O)c2c(OC)ccc-3c12 [Compound 3, viridistratin C]",> 66.7,> 66.7,> 66.7,> 66.7,> 66.7,> 66.7,> 66.7

# Second part, the compound after the results:
MIC [1] [µg/mL],MIC [2] [µg/mL],MIC [3] [µg/mL],MIC [4] [µg/mL],MIC [5] [µg/mL],MIC [6] [µg/mL],MIC [7] [µg/mL],Structure (SMILES)
> 66.7,66.7,> 66.7,> 66.7,> 66.7,> 66.7,> 66.7,"O=C1CCC(=O)c2c1c(O)cc1c2-c2ccc(O)c3c(O)ccc-1c23 [Compound 5, truncatone C]"
16.7,16.7,> 66.7,66.7,33.3,> 66.7,33.3,"COc1cccc2c3c(ccc12)-c1ccc(O)c2c(O)ccc-3c12 [Compound 2, viridistratin B]"
